# Laboratory results from ChEMBL document CHEMBL1128974, “Design, synthesis and X-ray crystallographic studies of [7.3.1] and [8.3.1] macrocyclic FKBP-12 ligands” (Bioorg Med Chem Lett, 1996).
# Target: T1, Peptidyl-prolyl cis-trans isomerase FKBP1A (Homo sapiens, UniProt P62942)
# Test: Compound was evaluated for inhibitory activity against human FKBP-12 rotamase; call rule not given here
# T1 sequence (P62942 whole entry): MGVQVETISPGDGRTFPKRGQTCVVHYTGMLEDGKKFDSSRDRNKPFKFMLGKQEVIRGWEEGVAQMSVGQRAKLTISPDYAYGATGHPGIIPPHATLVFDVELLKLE
row,SMILES,Ki [µM]
1,COc1cc(C(=O)C(=O)N2[C@@H]3CCC[C@H]2C(=O)OCCCCOC3=O)cc(OC)c1OC,0.28
2,CCC(C)(C)C(=O)C(=O)N1[C@@H]2CCC[C@H]1C(=O)OCCCOC2=O,10
3,CCC(C)(C)C(=O)C(=O)N1[C@@H]2CCC[C@H]1C(=O)OCCCCOC2=O,8.3
4,CC(C)[C@@H]1CC[C@@H](C)[C@](O)(C(=O)C(=O)N2[C@@H]3CCC[C@H]2C(=O)OCCCOC3=O)C1,8.1
5,COc1cc(C(=O)C(=O)N2[C@@H]3CCC[C@H]2C(=O)OCC(COCc2ccccc2)COC3=O)cc(OC)c1OC (stereo not given in full),1.2
6,COCC(C)[C@@H]1CC[C@@H](C)[C@](O)(C(=O)C(=O)N2[C@@H]3CCC[C@H]2C(=O)OCC(CO)COC3=O)C1 (stereo not given in full),> 50
7,COc1cc(C(=O)C(=O)N2[C@@H]3CCC[C@H]2C(=O)OCC(CO[Si](C)(C)C(C)(C)C)COC3=O)cc(OC)c1OC (stereo not given in full),1.5

# Target: T1, Peptidyl-prolyl cis-trans isomerase FKBP1A
# Test: Compound was evaluated for inhibitory activity against human FKBP-12 rotamase; no inhibition
row,SMILES,Ki
1,COCC(C)[C@@H]1CC[C@@H](C)[C@](O)(C(=O)C(=O)N2[C@@H]3CCC[C@H]2C(=O)OCC(COCc2ccccc2)COC3=O)C1 (stereo not given in full),Not Active
2,CO[C@@H](CC(C)C)[C@@H]1CC[C@@H](C)[C@](O)(C(=O)C(=O)N2[C@@H]3CCC[C@H]2C(=O)OCC(CO)COC3=O)C1 (stereo not given in full),Not Active
3,CO[C@@H](CC(C)C)[C@@H]1CC[C@@H](C)[C@](O)(C(=O)C(=O)N2[C@@H]3CCC[C@H]2C(=O)OCC(COCc2ccccc2)COC3=O)C1 (stereo not given in full),Not Active
